One data set relates to C. mucofaciens. The data set is described as follows: Tier 1 Anaerobic MIC Assay. It is filed as cell-based, Corynebacterium mucofaciens (clinical isolate). The conditions noted are these: raw material, BHI with 1% Tween 80, 37° C. overnight. The text has this: (§1) 1. Tier 1 Anaerobic MIC Assay
(§2) The data in Table 1 above was generated with the following test method. The purpose of this assay is to determine if a compound or formulation has an antimicrobial effect in vitro.
(§3) It is understood that when not specifically noted in this procedure: • a) All materials, reagents and equipment required for this procedure are of appropriate design and condition of cleanliness and/or sterility as determined by their intended use. • b) The operator has been trained in aseptic technique and has been qualified to perform the procedure and accurately interpret the results. • c) All media required for this procedure was manufactured by a reputable commercial source eg. Difco, Merck etc. and has been stored and prepared as per manufacturer's instructions. • d) All routine laboratory controls, including but not limited to, media function and growth promotion tests, verification of sterility and use of positive and negative controls are being conducted. Procedure: (all Procedures Performed in Anaerobic Chamber Except where Noted) 1. Apparatus • Incubator at 37° C.; 20-200 ul 12 channel pipette; 5-50 ul 12 channel pipette; 1250 ul 8 channel Thermo Scientific Matrix pipette; 96 well plate shaker (located in incubator); Beckman Coulter deep well cap mat #267005; Beckman Coulter deep 96 well plates #267007; Falcon 96 well tissue culture plates #353072; Vortexer; Culture tubes/caps Disposable sterile gloves; Sterile petri dishes; Standard microbiological lab equipment (sterile pipettes, syringes, tips, loops, etc.); Glass bottles/flasks for media; Autoclave; Parafilm; Spectrophotometer. 2. Media • 0.9% or 0.85% saline solution • BHI agar supplemented with 1% Tween 80 • BHI media supplemented with 1% Tween 80 3. Microbial Strains • Staphylococcus epidermidis (clinical isolate) • Corynebacterium mucofaciens (clinical isolate) 4. Test Procedure Inoculum Preparation • Prior to testing streak organisms for isolation on BHI with 1% Tween 80 plates, wrap with parafilm and place in 37° C. incubator. When isolated colonies appear remove one representative colony from each plate and place each in 5 ml of BHI with 1% Tween 80 media. Incubate at 37° C. with shaking overnight. Inoculate 20 ml BHI with 1% Tween 80 (per 96 deep well plate to be tested) with 20 ul of the overnight culture (1-1000 dilution). Master Plate Preparation • Compounds/formulations to be tested are diluted across a 96 deep well plate as shown below (for a 1% stock solution). 800 ul of 0.85% saline is added to wells A1 and B1 (as these will be the negative and positive control respectively). 800 ul each 1% stock solution+positive control are added to wells C1 through H1. 400 ul 0.85% saline are added to all other wells. 400 ul is then removed from #1 well added to the #2 well and mixed. This is then continued across the plate resulting in a 50% dilution between wells across the plate (this can be easily accomplished with an automatic 8 channel Matrix pipette set to withdraw, dispense and mix).
(§4) In row A of a 96 deep well plate pipette 180 ul of sterile BHI with 1% Tween 80 as a negative growth control. All other wells receive 180 ul of inoculum. From the master plate introduce 20 ul to the corresponding row in the test plate using an 8-channel pipette. Loaded plates are placed on a plate shaker in the 37° C. incubator and incubated overnight. The next day read the O.D. 600 on a plate reader. The MIC is the last well from the right that has no bacterial growth.

For the next data set, the system named is S. epidermidis. The data set is described as follows: Tier 1 Anaerobic MIC Assay. The class given is cell-based, Staphylococcus epidermidis (clinical isolate). Conditions: raw material, BHI with 1% Tween 80, 37° C. overnight.
Text: as §1, §2, §3, §4

Data set [1] relates to two key underarm bacteria strains. In words: Raw material microbial inhibition, verbal summary for both strains. It is filed as cell-based, C. mucofaciens and S. epidermidis. Conditions: verbal summary of Table 2, both strains.
Text: The data in Table 1 above was generated with the following test method.
It is understood that when not specifically noted in this procedure: • a) All materials, reagents and equipment required for this procedure are of appropriate design and condition of cleanliness and/or sterility as determined by their intended use. • b) The operator has been trained in aseptic technique and has been qualified to perform the procedure and accurately interpret the results. • c) All media required for this procedure was manufactured by a reputable commercial source eg. […] Procedure: (all Procedures Performed in Anaerobic Chamber Except where Noted) 1. […] 2. […] Microbial Strains • Staphylococcus epidermidis (clinical isolate) • Corynebacterium mucofaciens (clinical isolate) 4. Test Procedure Inoculum Preparation • Prior to testing streak organisms for isolation on BHI with 1% Tween 80 plates, wrap with parafilm and place in 37° C. incubator. When isolated colonies appear remove one representative colony from each plate and place each in 5 ml of BHI with 1% Tween 80 media. Incubate at 37° C. with shaking overnight. Inoculate 20 ml BHI with 1% Tween 80 (per 96 deep well plate to be tested) with 20 ul of the overnight culture (1-1000 dilution). Master Plate Preparation • Compounds/formulations to be tested are diluted across a 96 deep well plate as shown below (for a 1% stock solution). […] 800 ul each 1% stock solution+positive control are added to wells C1 through H1. […] 400 ul is then removed from #1 well added to the #2 well and mixed. This is then continued across the plate resulting in a 50% dilution between wells across the plate (this can be easily accomplished with an automatic 8 channel Matrix pipette set to withdraw, dispense and mix).
as §4

For data set [2] the following is noted: iron binding affinity; NIST Standard Reference Database 46; cited from earlier work.
The conditions of data set [3]: intrinsic water solubility independent of pH.

This is an account of results in patent US12036301B2, “Deodorant and antiperspirant compositions” (The Procter & Gamble Company, priority 2017, dated 2024).

Where a name gives a salt, the structure may show the parent alone.

Turning to `O=C([O-])[O-].[Ca+2]` [Ca Carbonate, calcium carbonate], the “microbial inhibition concentration (MIC), C. mucofaciens” value in the data set on C. mucofaciens was greater than 2500 ppm. Moreover, the “microbial inhibition concentration (MIC), S. epidermidis” value in the data set with S. epidermidis is greater than 2500 ppm. In addition, in data set [1], the “performance against the bacteria as raw materials” value (from here on “performance against the bacteria”) is “performing moderately well”. Consider `[Ca+2].[Cl-].[Cl-]` [CaCl], for which, in the data set with C. mucofaciens, the “microbial inhibition concentration (MIC), C. mucofaciens” value is given as greater than 50000 ppm. Also, the “microbial inhibition concentration (MIC), S. epidermidis” value with S. epidermidis is recorded as greater than 50000 ppm. For `CC(C)=CCCC(C)=CC=O` [Citral], the “performance against the bacteria” value in data set [1] is “performing well”.

In the case of `O=C(O)CC(O)(CC(=O)O)C(=O)O` [Citric Acid], the “Log K1” value in data set [2] is on record as 11.

On to `CC(=O)N(O)CCCCCNC(=O)CCC(=O)N(O)CCCCCNC(=O)CCC(=O)N(O)CCCCCN` [Desferrioxamine], for which the “Log K1” value in data set [2] is 31.

In the case of `O=C(O)CN(CCN(CC(=O)O)CC(=O)O)CCN(CC(=O)O)CC(=O)O` [Diethylenetriaminepentaacetic acid], the “Log K1” value in data set [2] was 28. As for `O=P(O)(O)CN(CCN(CP(=O)(O)O)CP(=O)(O)O)CCN(CP(=O)(O)O)CP(=O)(O)O` [Diethylenetriaminepentakis(methylenephosphonic acid)], the “Log K1” value in data set [2] is listed as 23.

In the case of `COC(=O)CCC(=O)OC` [Dimethyl Succinate], the “performance against the bacteria” value in data set [1] is “performing well”. In the case of `CCCCC(CC)COCC(O)CO` (stereo not shown) [Ethylhexyl glycerin], the “microbial inhibition concentration (MIC), C. mucofaciens” value in the data set on C. mucofaciens came out at 12500 ppm. The “microbial inhibition concentration (MIC), S. epidermidis” value in the data set on S. epidermidis turned out to be 12500 ppm.

Regarding `C=CCc1ccc(O)c(OC)c1` [Eugenol], in data set [1], the “performance against the bacteria” value is reported as “performing well”.

Turning to `CCCCCCCCC(CO)CCCCCC` (stereo not shown) [Hexyl Decanol], the “microbial inhibition concentration (MIC), C. mucofaciens” value in the data set on C. mucofaciens is given as 6062 ppm. Also, the “microbial inhibition concentration (MIC), S. epidermidis” value in the data set with S. epidermidis was 3031 ppm. `CC(C(=O)O)N(CC(=O)O)CC(=O)O` (stereo not shown) [Methylglycine diacetic acid (MGDA), Methylglycine diacetic acid]: the “Log K1” value in data set [2] is 16. For `[Cl-].[Na+]` [NaCl], the “microbial inhibition concentration (MIC), C. mucofaciens” value in the data set with C. mucofaciens is reported as greater than 25000 ppm. For the same molecule, the “microbial inhibition concentration (MIC), S. epidermidis” value in the data set with S. epidermidis was greater than 25000 ppm. In the case of `Cc1cc(CC(C)CC(C)(C)C)n(O)c(=O)c1.NCCO` (stereo not shown) [Piroctone olamine, 1-Hydroxy-4-methyl-6-(2,4,4-trimethylpentyl)-2-pyridone monoethanolamine salt], the “performance against the bacteria” value in data set [1] is listed as “perform particularly well”. The molecule further had a LogWSo in data set [3] of −3.22. As to `C=CCCCCCCCCC(=O)N[C@@H](Cc1ccccc1)C(=O)O` [Sepiwhite], the “microbial inhibition concentration (MIC), C. mucofaciens” value in the data set on C. mucofaciens is 2000 ppm. Further, the “microbial inhibition concentration (MIC), S. epidermidis” value with S. epidermidis amounted to 1000 ppm. Besides, in data set [1], the “performance against the bacteria” value is recorded as “performing well”. With `CCOC(=O)CC(O)(CC(=O)OCC)C(=O)OCC` [Triethyl citrate], the “performance against the bacteria” value in data set [1] is reported as “performing well”.
